This is an account of results in patent publication US20240300932A1, “N-PHENYLIMINE DERIVATIVE AND PREPARATION METHOD AND USE THEREOF” (Guizhou University, priority 2023, published 2024).

Each structure is given as a SMILES string.

One data set has as its system Setaria viridis. Put plainly: Post-emergence herbicidal activity test (stem and leaf spray, pot culture). It counts as in vivo. To be noted: 3 weeks after spraying. The method, boiled down:
(§1)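 Graded 0–5 on fresh-weight growth control rate 3 weeks after a single spray-tower application at 10, 5 or 2.5 g/mu. Compounds in acetone with Tween 80 and methyl oleate synergist (1.5 liters/ha), applied to greenhouse weeds at 2- to 3-leaf stage.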

In another data set the test system is Abutilon theophrasti. Described as above. It counts as in vivo. To be noted: 3 weeks after spraying. The method, boiled down: as §1
In another data set the test system is Echinochloa crusgalli. The data set is described as above. It counts as in vivo. To be noted: 3 weeks after spraying. The method, boiled down: as §1
A further data set has as its system Amaranthus retroflexus. The data set is described as above. It counts as in vivo. The following applies: 3 weeks after spraying. The method, boiled down:
as §1

In another data set the test system is Portulaca oleracea. The data set is described as above. It counts as in vivo. The following applies: 3 weeks after spraying. The method, boiled down:
as §1

A further data set deals with Trifoliumre pensL. Put plainly: Post-emergence herbicidal activity test (stem and leaf spray, pot culture). It counts as in vivo. To be noted: 3 weeks after spraying. Summed up:
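Rates of 10, 5 and 2.5 g/mu were applied in a single spray-tower treatment to 2–3-leaf plants, thinned to 10 per pot. Formulation: acetone solution, Tween 80, 1.5 L/ha methyl oleate synergist. Weed response assessed after 3 further greenhouse weeks; mean of three experiments.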

In general, melting point refers to the temperature of the solid-liquid transition.

As to `O=C(COc1cc(N2C(=O)C3=C(CCCC3)C2=O)c(F)cc1Cl)c1ccc(F)cc1F` [Compound C12, 2-(4-chloro-2-fluoro-5-(2-oxo-2-(2,4-difluorophenyl)ethoxy)phenyl)-4,5,6,7-tetrahydro-1H-isoindole-1,3(2H)-dione], the melting point lay in the range of 158 to 160 °C. In addition, in the data set on Setaria viridis (dosage 2.5 g/mu), the “Post-emergence herbicidal activity, S. viridis (grade)” value is 2 (Grade 2: the growth control rate is greater than or equal to 20% and less than 40%). Moreover, in the data set on Setaria viridis (dosage 5 g/mu), the “Post-emergence herbicidal activity, S. viridis (grade)” value was 3 (Grade 3: the growth control rate is greater than or equal to 40% and less than 60%). The “Post-emergence herbicidal activity, S. viridis (grade)” value in the data set with Setaria viridis (dosage 10 g/mu) was 4 (Grade 4: the growth control rate is greater than or equal to 60% and less than 85%). Besides, the “Post-emergence herbicidal activity, A. theophrasti (grade)” value in the data set with Abutilon theophrasti (dosage 2.5 g/mu) is given as 5 (Grade 5: the growth control rate is greater than or equal to 85%). For the same molecule, in the data set with Abutilon theophrasti (dosage 5 g/mu), the “Post-emergence herbicidal activity, A. theophrasti (grade)” value is on record as 5 (Grade 5: the growth control rate is greater than or equal to 85%). Moreover, the “Post-emergence herbicidal activity, A. theophrasti (grade)” value in the data set on Abutilon theophrasti (dosage 10 g/mu) is reported as 5 (Grade 5: the growth control rate is greater than or equal to 85%). For the same molecule, in the data set with Echinochloa crusgalli (dosage 2.5 g/mu), the “Post-emergence herbicidal activity, E. crusgalli (grade)” value is 1 (Grade 1: the growth control rate is greater than or equal to 5% and less than 20%). In addition, the “Post-emergence herbicidal activity, E. crusgalli (grade)” value with Echinochloa crusgalli (dosage 5 g/mu) was 2 (Grade 2: the growth control rate is greater than or equal to 20% and less than 40%). For the same molecule, the “Post-emergence herbicidal activity, E. crusgalli (grade)” value in the data set with Echinochloa crusgalli (dosage 10 g/mu) is 3 (Grade 3: the growth control rate is greater than or equal to 40% and less than 60%). Also, the “Post-emergence herbicidal activity, A. retroflexus (grade)” value in the data set on Amaranthus retroflexus (dosage 2.5 g/mu) is 5 (Grade 5: the growth control rate is greater than or equal to 85%). Also, the “Post-emergence herbicidal activity, A. retroflexus (grade)” value with Amaranthus retroflexus (dosage 5 g/mu) is 5 (Grade 5: the growth control rate is greater than or equal to 85%). The “Post-emergence herbicidal activity, A. retroflexus (grade)” value in the data set on Amaranthus retroflexus (dosage 10 g/mu) is reported as 5 (Grade 5: the growth control rate is greater than or equal to 85%). In the data set on Portulaca oleracea (dosage 2.5 g/mu), the “Post-emergence herbicidal activity, P. oleracea (grade)” value was 5 (Grade 5: the growth control rate is greater than or equal to 85%). Further, the “Post-emergence herbicidal activity, P. oleracea (grade)” value with Portulaca oleracea (dosage 5 g/mu) is recorded as 5 (Grade 5: the growth control rate is greater than or equal to 85%). Besides, the “Post-emergence herbicidal activity, P. oleracea (grade)” value in the data set with Portulaca oleracea (dosage 10 g/mu) was 5 (Grade 5: the growth control rate is greater than or equal to 85%). In addition, the “Post-emergence herbicidal activity, Trifoliumre pensL. (grade)” value in the data set on Trifoliumre pensL. (dosage 2.5 g/mu) is listed as 5 (Grade 5: the growth control rate is greater than or equal to 85%). Besides, the “Post-emergence herbicidal activity, Trifoliumre pensL. (grade)” value in the data set on Trifoliumre pensL. (dosage 5 g/mu) is 5 (Grade 5: the growth control rate is greater than or equal to 85%). In addition, in the data set on Trifoliumre pensL. (dosage 10 g/mu), the “Post-emergence herbicidal activity, Trifoliumre pensL. (grade)” value is reported as 5 (Grade 5: the growth control rate is greater than or equal to 85%).

For `COc1ccc(C(=O)COc2cc(N3C(=O)C4=C(CCCC4)C3=O)c(F)cc2Cl)cc1` [Compound C13, 2-(4-chloro-2-fluoro-5-(2-oxo-2-(4-methoxyphenyl)ethoxy)phenyl)-4,5,6,7-tetrahydro-1H-isoindole-1,3(2H)-dione], the melting point was 151 to 153 °C. Besides, the “Post-emergence herbicidal activity, S. viridis (grade)” value with Setaria viridis (dosage 2.5 g/mu) was 2 (Grade 2: the growth control rate is greater than or equal to 20% and less than 40%). Further, in the data set with Setaria viridis (dosage 5 g/mu), the “Post-emergence herbicidal activity, S. viridis (grade)” value was 3 (Grade 3: the growth control rate is greater than or equal to 40% and less than 60%). Also, the “Post-emergence herbicidal activity, S. viridis (grade)” value in the data set with Setaria viridis (dosage 10 g/mu) is 4 (Grade 4: the growth control rate is greater than or equal to 60% and less than 85%). For the same molecule, in the data set on Abutilon theophrasti (dosage 2.5 g/mu), the “Post-emergence herbicidal activity, A. theophrasti (grade)” value was 5 (Grade 5: the growth control rate is greater than or equal to 85%). For the same molecule, the “Post-emergence herbicidal activity, A. theophrasti (grade)” value with Abutilon theophrasti (dosage 5 g/mu) was 5 (Grade 5: the growth control rate is greater than or equal to 85%). Moreover, the “Post-emergence herbicidal activity, A. theophrasti (grade)” value with Abutilon theophrasti (dosage 10 g/mu) is listed as 5 (Grade 5: the growth control rate is greater than or equal to 85%). Also, the “Post-emergence herbicidal activity, E. crusgalli (grade)” value with Echinochloa crusgalli (dosage 2.5 g/mu) is 1 (Grade 1: the growth control rate is greater than or equal to 5% and less than 20%). Besides, in the data set on Echinochloa crusgalli (dosage 5 g/mu), the “Post-emergence herbicidal activity, E. crusgalli (grade)” value was 2 (Grade 2: the growth control rate is greater than or equal to 20% and less than 40%). Besides, the “Post-emergence herbicidal activity, E. crusgalli (grade)” value in the data set on Echinochloa crusgalli (dosage 10 g/mu) was 3 (Grade 3: the growth control rate is greater than or equal to 40% and less than 60%). For the same molecule, in the data set on Amaranthus retroflexus (dosage 2.5 g/mu), the “Post-emergence herbicidal activity, A. retroflexus (grade)” value is listed as 5 (Grade 5: the growth control rate is greater than or equal to 85%). Further, the “Post-emergence herbicidal activity, A. retroflexus (grade)” value with Amaranthus retroflexus (dosage 5 g/mu) was 5 (Grade 5: the growth control rate is greater than or equal to 85%). Besides, the “Post-emergence herbicidal activity, A. retroflexus (grade)” value in the data set on Amaranthus retroflexus (dosage 10 g/mu) is recorded as 5 (Grade 5: the growth control rate is greater than or equal to 85%). Moreover, the “Post-emergence herbicidal activity, P. oleracea (grade)” value in the data set on Portulaca oleracea (dosage 2.5 g/mu) is given as 5 (Grade 5: the growth control rate is greater than or equal to 85%). Further, the “Post-emergence herbicidal activity, P. oleracea (grade)” value in the data set on Portulaca oleracea (dosage 5 g/mu) is 5 (Grade 5: the growth control rate is greater than or equal to 85%). Also, the “Post-emergence herbicidal activity, P. oleracea (grade)” value with Portulaca oleracea (dosage 10 g/mu) was 5 (Grade 5: the growth control rate is greater than or equal to 85%). Moreover, the “Post-emergence herbicidal activity, Trifoliumre pensL. (grade)” value in the data set on Trifoliumre pensL. (dosage 2.5 g/mu) is given as 5 (Grade 5: the growth control rate is greater than or equal to 85%). Further, the “Post-emergence herbicidal activity, Trifoliumre pensL. (grade)” value in the data set on Trifoliumre pensL. (dosage 5 g/mu) was 5 (Grade 5: the growth control rate is greater than or equal to 85%). In the data set on Trifoliumre pensL. (dosage 10 g/mu), the “Post-emergence herbicidal activity, Trifoliumre pensL. (grade)” value was 5 (Grade 5: the growth control rate is greater than or equal to 85%).

As to `O=C(COc1cc(N2C(=O)C3=C(CCCC3)C2=O)c(F)cc1Cl)c1ccc(Br)cc1` [Compound C14, 2-(4-chloro-2-fluoro-5-(2-oxo-2-(4-bromophenyl)ethoxy)phenyl)-4,5,6,7-tetrahydro-1H-isoindole-1,3(2H)-dione], the melting point fell in the range of 183 to 185 °C. Moreover, the “Post-emergence herbicidal activity, S. viridis (grade)” value with Setaria viridis (dosage 2.5 g/mu) is 2 (Grade 2: the growth control rate is greater than or equal to 20% and less than 40%). Also, in the data set on Setaria viridis (dosage 5 g/mu), the “Post-emergence herbicidal activity, S. viridis (grade)” value was 3 (Grade 3: the growth control rate is greater than or equal to 40% and less than 60%). Besides, the “Post-emergence herbicidal activity, S. viridis (grade)” value with Setaria viridis (dosage 10 g/mu) is 4 (Grade 4: the growth control rate is greater than or equal to 60% and less than 85%). In the data set with Abutilon theophrasti (dosage 2.5 g/mu), the “Post-emergence herbicidal activity, A. theophrasti (grade)” value is 5 (Grade 5: the growth control rate is greater than or equal to 85%). The “Post-emergence herbicidal activity, A. theophrasti (grade)” value in the data set on Abutilon theophrasti (dosage 5 g/mu) is given as 5 (Grade 5: the growth control rate is greater than or equal to 85%). The “Post-emergence herbicidal activity, A. theophrasti (grade)” value in the data set with Abutilon theophrasti (dosage 10 g/mu) is given as 5 (Grade 5: the growth control rate is greater than or equal to 85%). For the same molecule, the “Post-emergence herbicidal activity, E. crusgalli (grade)” value in the data set with Echinochloa crusgalli (dosage 2.5 g/mu) is 1 (Grade 1: the growth control rate is greater than or equal to 5% and less than 20%). The “Post-emergence herbicidal activity, E. crusgalli (grade)” value with Echinochloa crusgalli (dosage 5 g/mu) was 2 (Grade 2: the growth control rate is greater than or equal to 20% and less than 40%). For the same molecule, in the data set with Echinochloa crusgalli (dosage 10 g/mu), the “Post-emergence herbicidal activity, E. crusgalli (grade)” value was 3 (Grade 3: the growth control rate is greater than or equal to 40% and less than 60%). The “Post-emergence herbicidal activity, A. retroflexus (grade)” value in the data set on Amaranthus retroflexus (dosage 2.5 g/mu) is 5 (Grade 5: the growth control rate is greater than or equal to 85%). For the same molecule, the “Post-emergence herbicidal activity, A. retroflexus (grade)” value in the data set on Amaranthus retroflexus (dosage 5 g/mu) was 5 (Grade 5: the growth control rate is greater than or equal to 85%). In addition, the “Post-emergence herbicidal activity, A. retroflexus (grade)” value with Amaranthus retroflexus (dosage 10 g/mu) is 5 (Grade 5: the growth control rate is greater than or equal to 85%). In addition, the “Post-emergence herbicidal activity, P. oleracea (grade)” value in the data set with Portulaca oleracea (dosage 2.5 g/mu) is given as 5 (Grade 5: the growth control rate is greater than or equal to 85%). The “Post-emergence herbicidal activity, P. oleracea (grade)” value in the data set with Portulaca oleracea (dosage 5 g/mu) was 5 (Grade 5: the growth control rate is greater than or equal to 85%). Moreover, the “Post-emergence herbicidal activity, P. oleracea (grade)” value in the data set with Portulaca oleracea (dosage 10 g/mu) is 5 (Grade 5: the growth control rate is greater than or equal to 85%). In addition, the “Post-emergence herbicidal activity, Trifoliumre pensL. (grade)” value with Trifoliumre pensL. (dosage 2.5 g/mu) is reported as 5 (Grade 5: the growth control rate is greater than or equal to 85%). For the same molecule, the “Post-emergence herbicidal activity, Trifoliumre pensL. (grade)” value with Trifoliumre pensL. (dosage 5 g/mu) is on record as 5 (Grade 5: the growth control rate is greater than or equal to 85%). The “Post-emergence herbicidal activity, Trifoliumre pensL. (grade)” value with Trifoliumre pensL. (dosage 10 g/mu) is 5 (Grade 5: the growth control rate is greater than or equal to 85%).
